From ChEMBL document CHEMBL5465560, “Selectivity Literature for EUbOPEN Chemogenomic Library” (2024) come the findings set out here.

For orientation: pIC50 means the IC50 on a negative log10 scale, so that one unit is a factor of ten.

pIC50: −log10 of the molar value. Bounds are passed on as bounds.

The target of assay [1] is T1, Dual specificity mitogen-activated protein kinase kinase 5 (Homo sapiens) (UniProt Q13163).
T1 sequence (whole entry): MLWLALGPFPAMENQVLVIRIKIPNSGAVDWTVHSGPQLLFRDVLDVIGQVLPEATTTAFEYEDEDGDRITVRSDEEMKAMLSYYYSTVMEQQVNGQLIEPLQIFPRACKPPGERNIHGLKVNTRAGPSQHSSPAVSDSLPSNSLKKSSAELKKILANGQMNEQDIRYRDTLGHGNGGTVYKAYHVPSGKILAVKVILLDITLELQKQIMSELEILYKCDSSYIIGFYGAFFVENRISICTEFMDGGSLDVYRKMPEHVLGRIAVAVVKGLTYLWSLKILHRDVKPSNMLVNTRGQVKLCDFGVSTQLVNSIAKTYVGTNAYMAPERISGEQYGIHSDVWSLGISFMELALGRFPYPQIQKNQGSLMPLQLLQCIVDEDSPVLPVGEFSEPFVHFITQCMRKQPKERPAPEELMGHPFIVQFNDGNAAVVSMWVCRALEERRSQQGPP
The experiment in a line: Selectivity interaction (ProQinase) EUB0000171b MAP2K5.

For assay [2], the target named is T2, Activin receptor type-1 (Homo sapiens) (UniProt Q04771).
T2 sequence (whole entry): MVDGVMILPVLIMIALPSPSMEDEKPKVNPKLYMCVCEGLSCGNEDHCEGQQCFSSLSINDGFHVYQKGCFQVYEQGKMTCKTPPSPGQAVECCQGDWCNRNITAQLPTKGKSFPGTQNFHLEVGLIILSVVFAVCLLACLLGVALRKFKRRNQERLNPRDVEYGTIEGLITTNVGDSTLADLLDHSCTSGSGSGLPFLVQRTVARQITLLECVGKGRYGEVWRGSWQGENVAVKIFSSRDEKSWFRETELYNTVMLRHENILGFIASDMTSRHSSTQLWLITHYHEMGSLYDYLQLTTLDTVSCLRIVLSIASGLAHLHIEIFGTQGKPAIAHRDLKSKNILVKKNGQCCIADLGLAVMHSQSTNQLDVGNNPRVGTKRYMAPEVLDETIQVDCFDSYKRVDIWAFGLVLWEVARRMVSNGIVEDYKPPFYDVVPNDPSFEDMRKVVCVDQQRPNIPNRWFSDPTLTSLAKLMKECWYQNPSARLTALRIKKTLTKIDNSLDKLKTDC
The experiment in a line: Selectivity interaction (Ambit KINOMEscan and KiNATiv profiling in Jurkat cells) EUB0000090b ACVR1. As to conditions: at 1 µM. Format: cell-based.

The target in assay [3] is Homeodomain-interacting protein kinase 2 (Homo sapiens, UniProt Q9H2X6). Kind of assay: Selectivity interaction (Ambit KINOMEscan and KiNATiv profiling in Jurkat cells) EUB0000090b HIPK2. Format: cell-based. The following applies: at 1 µM.
Homeodomain-interacting protein kinase 2, sequence (Q9H2X6 whole entry, looked up): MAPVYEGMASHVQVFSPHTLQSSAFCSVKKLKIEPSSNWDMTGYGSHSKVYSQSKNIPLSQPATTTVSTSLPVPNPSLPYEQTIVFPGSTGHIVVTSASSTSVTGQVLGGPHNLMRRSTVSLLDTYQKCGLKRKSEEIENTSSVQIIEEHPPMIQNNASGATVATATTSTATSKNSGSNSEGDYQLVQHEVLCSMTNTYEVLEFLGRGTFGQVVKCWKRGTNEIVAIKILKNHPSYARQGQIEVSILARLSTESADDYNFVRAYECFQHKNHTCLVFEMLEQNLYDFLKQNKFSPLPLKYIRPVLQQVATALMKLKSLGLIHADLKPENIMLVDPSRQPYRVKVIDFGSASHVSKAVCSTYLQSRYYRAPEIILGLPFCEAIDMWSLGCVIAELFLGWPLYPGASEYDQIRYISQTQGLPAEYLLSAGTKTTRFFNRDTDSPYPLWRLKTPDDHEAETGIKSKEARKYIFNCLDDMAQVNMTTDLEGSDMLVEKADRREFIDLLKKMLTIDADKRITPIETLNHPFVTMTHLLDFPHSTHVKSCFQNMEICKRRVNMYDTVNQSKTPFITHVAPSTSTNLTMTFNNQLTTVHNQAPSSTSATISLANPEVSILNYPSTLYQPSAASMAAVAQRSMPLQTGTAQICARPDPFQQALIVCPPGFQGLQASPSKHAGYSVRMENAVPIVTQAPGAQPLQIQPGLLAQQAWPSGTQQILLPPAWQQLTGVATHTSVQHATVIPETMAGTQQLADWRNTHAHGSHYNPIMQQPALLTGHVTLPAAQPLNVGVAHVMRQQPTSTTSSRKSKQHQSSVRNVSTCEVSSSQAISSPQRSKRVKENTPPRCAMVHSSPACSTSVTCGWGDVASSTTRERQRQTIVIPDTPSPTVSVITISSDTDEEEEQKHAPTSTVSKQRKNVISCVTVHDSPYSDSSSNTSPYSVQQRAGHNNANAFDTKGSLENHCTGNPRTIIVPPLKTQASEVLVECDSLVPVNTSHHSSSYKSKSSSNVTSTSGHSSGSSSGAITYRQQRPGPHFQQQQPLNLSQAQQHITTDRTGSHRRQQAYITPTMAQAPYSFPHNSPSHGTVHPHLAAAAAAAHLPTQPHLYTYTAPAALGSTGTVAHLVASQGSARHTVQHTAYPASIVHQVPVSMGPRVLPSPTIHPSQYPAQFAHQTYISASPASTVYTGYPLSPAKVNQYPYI
In assay [4] the target is Aurora kinase B (Homo sapiens, UniProt Q96GD4). The experiment in a line: Selectivity interaction (KinomeScan (DiscoverX)) EUB0000045b AURKB.
Aurora kinase B, sequence (Q96GD4 whole entry): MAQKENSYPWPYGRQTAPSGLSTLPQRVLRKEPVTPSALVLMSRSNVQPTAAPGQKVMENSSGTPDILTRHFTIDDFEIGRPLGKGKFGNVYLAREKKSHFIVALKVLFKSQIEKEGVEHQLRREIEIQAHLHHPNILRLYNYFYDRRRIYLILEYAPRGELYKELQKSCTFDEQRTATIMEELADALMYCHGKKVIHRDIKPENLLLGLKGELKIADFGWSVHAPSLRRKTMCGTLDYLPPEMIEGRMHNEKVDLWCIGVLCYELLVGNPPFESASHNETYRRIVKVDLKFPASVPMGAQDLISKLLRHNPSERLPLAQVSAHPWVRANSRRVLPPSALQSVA
For assay [5], the target named is Mitogen-activated protein kinase 11 (Homo sapiens) (UniProt Q15759). Kind of assay: Selectivity interaction (SelectScreen profiling (Invitrogen)) EUB0000607a MAPK11. The following applies: at 2 µM.
Mitogen-activated protein kinase 11 (Homo sapiens), sequence (Q15759 whole entry): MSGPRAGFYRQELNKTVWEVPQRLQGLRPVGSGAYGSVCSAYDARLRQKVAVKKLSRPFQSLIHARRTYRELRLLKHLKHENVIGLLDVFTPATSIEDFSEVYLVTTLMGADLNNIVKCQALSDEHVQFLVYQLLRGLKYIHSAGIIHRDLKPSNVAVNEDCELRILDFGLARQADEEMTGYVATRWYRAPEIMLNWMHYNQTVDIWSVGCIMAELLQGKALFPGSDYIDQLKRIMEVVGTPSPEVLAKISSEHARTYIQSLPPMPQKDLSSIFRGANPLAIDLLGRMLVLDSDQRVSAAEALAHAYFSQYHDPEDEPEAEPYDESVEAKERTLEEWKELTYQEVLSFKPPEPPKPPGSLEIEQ
Assay [6] has as its target Ribosomal protein S6 kinase alpha-1 (Homo sapiens, UniProt Q15418). Kind of assay: Selectivity interaction (ActivX KiNativ screen (kinase selectivity in THP-1 cell lysates)) EUB0000639a RPS6KA1. Format: subcellular. As to conditions: lysate.
The target in assay [7] is Fibroblast growth factor receptor 3 (Homo sapiens, UniProt P22607). Kind of assay: Selectivity interaction (Kinase panel (33PanQinase(R) Activity Assay)) EUB0000877a FGFR3.
Fibroblast growth factor receptor 3, sequence (P22607 whole entry): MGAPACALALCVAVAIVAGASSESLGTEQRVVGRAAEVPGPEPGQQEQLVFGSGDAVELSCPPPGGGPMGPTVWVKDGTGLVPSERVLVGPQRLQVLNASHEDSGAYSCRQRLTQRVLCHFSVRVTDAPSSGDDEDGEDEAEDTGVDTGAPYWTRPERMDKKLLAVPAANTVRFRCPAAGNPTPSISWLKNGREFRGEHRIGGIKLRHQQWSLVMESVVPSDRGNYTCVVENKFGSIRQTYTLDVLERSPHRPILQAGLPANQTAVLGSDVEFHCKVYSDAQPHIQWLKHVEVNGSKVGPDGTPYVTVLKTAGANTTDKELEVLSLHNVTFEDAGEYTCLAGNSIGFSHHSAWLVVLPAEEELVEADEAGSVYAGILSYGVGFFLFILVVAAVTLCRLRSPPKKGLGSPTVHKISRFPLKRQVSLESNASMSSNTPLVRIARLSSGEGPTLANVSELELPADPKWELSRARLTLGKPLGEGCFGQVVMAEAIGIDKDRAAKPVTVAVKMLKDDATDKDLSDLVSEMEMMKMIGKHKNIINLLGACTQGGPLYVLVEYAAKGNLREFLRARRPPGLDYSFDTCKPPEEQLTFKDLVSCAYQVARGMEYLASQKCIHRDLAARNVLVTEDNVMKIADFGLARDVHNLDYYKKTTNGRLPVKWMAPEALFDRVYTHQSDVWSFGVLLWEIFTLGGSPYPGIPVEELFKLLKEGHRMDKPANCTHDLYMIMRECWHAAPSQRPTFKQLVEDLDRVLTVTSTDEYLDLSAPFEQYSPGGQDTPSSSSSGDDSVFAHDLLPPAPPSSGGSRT
The test system of assay [8] is Epidermal growth factor receptor (Homo sapiens), P00533 [L858R]. The following applies: at 10 µM.
Assay [9] has as its target T3, Discoidin domain-containing receptor 2 (Homo sapiens) (UniProt Q16832).
T3 sequence (whole entry): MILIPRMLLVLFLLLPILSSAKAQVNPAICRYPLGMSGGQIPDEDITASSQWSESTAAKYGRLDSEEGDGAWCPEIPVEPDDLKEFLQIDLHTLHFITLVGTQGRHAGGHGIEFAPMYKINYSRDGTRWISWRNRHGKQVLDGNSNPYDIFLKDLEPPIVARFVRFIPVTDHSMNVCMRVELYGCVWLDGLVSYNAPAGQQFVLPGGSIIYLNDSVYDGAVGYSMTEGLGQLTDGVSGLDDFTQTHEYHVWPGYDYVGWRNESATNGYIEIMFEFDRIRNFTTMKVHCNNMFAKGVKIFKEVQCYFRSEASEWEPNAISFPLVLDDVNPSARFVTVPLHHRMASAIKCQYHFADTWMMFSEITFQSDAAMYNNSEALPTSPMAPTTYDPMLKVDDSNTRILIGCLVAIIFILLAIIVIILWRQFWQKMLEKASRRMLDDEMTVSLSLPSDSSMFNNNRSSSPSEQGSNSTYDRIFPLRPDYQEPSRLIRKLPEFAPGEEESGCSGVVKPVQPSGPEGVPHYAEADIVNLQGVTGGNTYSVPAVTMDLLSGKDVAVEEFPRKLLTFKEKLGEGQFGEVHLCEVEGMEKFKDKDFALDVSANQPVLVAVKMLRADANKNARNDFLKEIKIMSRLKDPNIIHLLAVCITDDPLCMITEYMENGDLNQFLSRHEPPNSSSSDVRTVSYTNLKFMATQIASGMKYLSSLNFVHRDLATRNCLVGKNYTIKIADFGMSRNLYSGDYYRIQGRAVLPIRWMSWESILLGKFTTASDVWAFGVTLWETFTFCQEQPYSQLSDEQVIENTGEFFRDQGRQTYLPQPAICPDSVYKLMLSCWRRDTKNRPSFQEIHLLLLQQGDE
The experiment in a line: Selectivity interaction (KinomeScan (DiscoverX)) EUB0001619a DDR2. As to conditions: at 1 µM.

Assay [10] addresses Serine/threonine-protein kinase mTOR (Homo sapiens, UniProt P42345). The experiment in a line: Selectivity interaction (Kinase panel (KiNativ target engagement assay in Jurkat cells)) EUB0001635a MTOR. Format: cell-based. As to conditions: Selectivity number of off-targets 0.0, Selectivity number of targets 233.0, Source Knowledge https://www.sciencedirect.com/science/article/pii/S2451945619300674?via%3Dihub, at 1 µM.

Assay [11] deals with Serine/threonine-protein kinase PAK 4 (Homo sapiens, UniProt O96013). Kind of assay: Selectivity interaction (KinomeScan (DiscoverX)) EUB0000618a PAK4. As to conditions: at 10 µM.
Serine/threonine-protein kinase PAK 4, sequence (O96013 whole entry, looked up): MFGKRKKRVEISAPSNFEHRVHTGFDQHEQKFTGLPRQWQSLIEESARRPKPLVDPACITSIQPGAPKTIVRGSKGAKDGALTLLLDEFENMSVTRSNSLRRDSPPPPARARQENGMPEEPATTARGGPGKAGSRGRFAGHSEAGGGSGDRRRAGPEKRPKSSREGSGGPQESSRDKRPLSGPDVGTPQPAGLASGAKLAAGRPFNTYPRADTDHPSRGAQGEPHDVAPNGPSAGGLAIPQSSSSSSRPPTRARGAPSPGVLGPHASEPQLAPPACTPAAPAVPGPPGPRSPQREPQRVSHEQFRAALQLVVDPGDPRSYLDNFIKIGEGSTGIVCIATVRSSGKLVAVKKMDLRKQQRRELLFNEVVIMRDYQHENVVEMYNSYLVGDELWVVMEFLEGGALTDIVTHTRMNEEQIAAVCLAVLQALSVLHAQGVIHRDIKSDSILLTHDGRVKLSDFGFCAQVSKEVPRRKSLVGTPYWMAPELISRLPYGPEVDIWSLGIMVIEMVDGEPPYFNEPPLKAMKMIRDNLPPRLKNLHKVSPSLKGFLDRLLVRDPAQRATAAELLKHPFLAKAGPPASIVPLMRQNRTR

Ribosomal protein S6 kinase alpha-1, sequence (Q15418 whole entry): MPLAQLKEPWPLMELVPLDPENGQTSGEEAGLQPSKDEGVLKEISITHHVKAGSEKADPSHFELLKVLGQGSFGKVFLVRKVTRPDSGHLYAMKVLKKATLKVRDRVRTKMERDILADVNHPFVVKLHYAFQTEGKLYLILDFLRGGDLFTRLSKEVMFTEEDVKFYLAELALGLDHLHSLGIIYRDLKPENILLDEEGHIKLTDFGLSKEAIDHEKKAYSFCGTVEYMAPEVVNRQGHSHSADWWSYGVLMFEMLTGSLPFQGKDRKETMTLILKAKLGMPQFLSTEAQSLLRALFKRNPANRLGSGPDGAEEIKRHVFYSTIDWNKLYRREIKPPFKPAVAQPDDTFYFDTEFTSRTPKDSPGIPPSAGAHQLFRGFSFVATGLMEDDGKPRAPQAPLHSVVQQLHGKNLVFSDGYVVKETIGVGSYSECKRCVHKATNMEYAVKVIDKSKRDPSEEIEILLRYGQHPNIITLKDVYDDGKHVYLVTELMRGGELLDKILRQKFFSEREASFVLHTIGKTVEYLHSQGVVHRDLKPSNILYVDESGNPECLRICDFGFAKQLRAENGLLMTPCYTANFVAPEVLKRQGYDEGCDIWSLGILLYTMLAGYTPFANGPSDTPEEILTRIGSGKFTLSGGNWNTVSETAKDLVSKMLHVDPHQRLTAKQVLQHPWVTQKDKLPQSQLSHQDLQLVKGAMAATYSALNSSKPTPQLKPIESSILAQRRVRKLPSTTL

Regarding `C=CC(=O)Nc1cccc(C(=O)Nc2ccc(Nc3cc(-c4[nH]c(SC)nc4C)ccn3)cc2)c1`, the % of control in assay [1] (at 1 µM) was found to be 87%; in [1] (at 5 µM), 60%.
In the case of `CN(C)C/C=C/C(=O)Nc1ccc(C(=O)N2CCCC(Nc3ncc(Cl)c(-c4c[nH]c5ccccc45)n3)C2)cc1` (configuration not stated), the % of control in assay [2] was 97%; in [3], 70%.
Take `C=CC(=O)Nc1cc(-n2c(=O)ccc3cnc4ccc(-c5ccc(NS(C)(=O)=O)cc5)cc4c32)ccc1C`: the % of control is 100% in assay [4] (at 1 µM) and 75% in assay [4] (at 10 µM).
On to `CNC(=O)Nc1ccc(-c2nc(N3CC4CCC(C3)O4)c3cnn(C4CCC5(CC4)OCCO5)c3n2)cc1`, for which the % of inhibition in [5] came to 2%.
For the compound `CC[C@@H]1[C@H](F)C(=O)N[C@@H]1COc1nccc2cc(C(N)=O)c(OC)cc12` [ZIMLOVISERTIB], the % of inhibition in assay [6] (at 0.01 µM) was found to be 18.6%; in assay [6] (at 0.04 µM) it was 18%; in [6] (at 0.2 µM), 14.6%; in assay [6] (at 1 µM), 14.7%; in [6] (at 5 µM) it was 7.3%.
`CCC(=O)N1CC[C@H](Nc2ncnc3c2CN(c2cnc(OC)c(C(F)(F)F)c2)CC3)C1` [LENIOLISIB] showed a pIC50 in [7] of less than 5.00.
As for `COCC(=O)NC/C=C/c1ccc2ncnc(Nc3ccc(Oc4ccc(C)nc4)c(C)c3)c2c1` [CP-724714], the % of control in assay [8] was 0.6%.
`N#Cc1cccc(-c2c[nH]c3ncnc(N4CCOCC4)c23)c1` yielded a % of control in [9] of 71%.
Turning to `C=CC(=O)Nc1ccc(C(=O)Nc2[nH]nc3c2CN(C(=O)N[C@H](CN(C)C)c2ccccc2)C3(C)C)cc1`, in [10], the % of engagement is -11.9%.
For `O[C@H]1CC[C@H](Nc2ncc3nc(Nc4c(F)cc(F)cc4F)n([C@H]4CCOC4)c3n2)CC1`, in [11], the % of control is 100%.
